Laboratory results reported in ChEMBL document CHEMBL1201862, “PubChem BioAssay data set” (2004).
Activity calls are given as the source filed them.

What was measured:
[1] = molecular target: T1, Adenosylmethionine-8-amino-7-oxononanoate aminotransferase (Mycobacterium tuberculosis, UniProt P9WQ81); assay: Mycobacterium tuberculosis BioA enzyme inhibitor Measured in Biochemical System Using Plate Reader - 2163-02_Inhibitor_Dose_CherryPick_Activity.; format: functional, Mycobacterium tuberculosis UT205
T1 sequence (P9WQ81 whole entry): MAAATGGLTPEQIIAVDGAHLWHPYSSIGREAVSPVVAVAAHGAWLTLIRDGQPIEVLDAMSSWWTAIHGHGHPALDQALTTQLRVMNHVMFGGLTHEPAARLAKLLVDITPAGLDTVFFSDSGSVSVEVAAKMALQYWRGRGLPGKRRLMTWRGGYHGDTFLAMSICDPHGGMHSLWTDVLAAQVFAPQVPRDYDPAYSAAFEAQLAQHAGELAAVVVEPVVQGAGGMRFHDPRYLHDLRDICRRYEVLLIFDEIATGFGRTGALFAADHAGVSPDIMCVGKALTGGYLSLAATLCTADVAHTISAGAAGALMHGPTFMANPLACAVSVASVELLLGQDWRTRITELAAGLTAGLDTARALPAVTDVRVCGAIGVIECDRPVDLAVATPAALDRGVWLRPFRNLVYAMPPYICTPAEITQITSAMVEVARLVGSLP

[2] = molecular target: T2, Heat shock factor protein 1 (Mus musculus, UniProt P38532); assay: decrease of HSF1-responsive luciferase luminescence – cell-based, NIH3T3, dose retest, confirmation (AID 2382); format: functional;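 note: NIH3T3 fibroblasts with HSF1-driven luciferase reporter stressed by proteasome inhibitor MG132; luminescence from HSF1-driven luciferase expression after 8 hours of MG132 stress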
T2 sequence (P38532 whole entry): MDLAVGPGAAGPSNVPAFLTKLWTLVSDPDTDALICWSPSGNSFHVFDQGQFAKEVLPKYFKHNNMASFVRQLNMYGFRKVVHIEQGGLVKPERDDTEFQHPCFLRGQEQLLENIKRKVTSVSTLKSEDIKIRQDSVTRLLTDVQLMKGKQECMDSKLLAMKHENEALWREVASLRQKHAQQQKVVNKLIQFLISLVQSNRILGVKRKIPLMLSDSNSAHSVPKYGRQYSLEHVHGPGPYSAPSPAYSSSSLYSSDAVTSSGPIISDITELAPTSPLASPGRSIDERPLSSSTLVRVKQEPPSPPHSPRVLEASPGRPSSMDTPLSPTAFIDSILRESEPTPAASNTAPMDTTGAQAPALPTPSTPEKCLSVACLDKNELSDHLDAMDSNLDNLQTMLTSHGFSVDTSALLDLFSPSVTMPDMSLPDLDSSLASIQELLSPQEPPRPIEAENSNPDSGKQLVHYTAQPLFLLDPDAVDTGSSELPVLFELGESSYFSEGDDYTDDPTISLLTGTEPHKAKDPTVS

[3] = molecular target: DNA dC->dU-editing enzyme APOBEC-3G (Homo sapiens, UniProt Q9HC16); assay: Dose Response confirmation of small molecule APOBEC3G DNA Deaminase Inhibitors via a fluorescence-based single-stranded DNA deaminase assay. [Related pubchem assays (depositor defined):AID493012, AID493028]; format: functional
[4] = intracellular Trypanosoma cruzi inhibitors in host cells – cell-based, plate reader, cherry-pick samples, set 3, dose response (AID 651818); format: functional;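 note: compounds incubated with infected cells for about four days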
[5] = molecular target: Prothrombin (Homo sapiens, UniProt P00734); assay: Thrombin 1536 HTS Dose Response Confirmation. [Related pubchem assays: 1046 (Thrombin 1536 HTS; hits were confirmed in this assay)]; format: functional
[6] = alpha-synuclein stem-loop luciferase translation blockers – H4 neuroglioma cells, luminescence, confirmation (AID 1988); format: functional, cell-based
[7] = molecular target: T3, Fatty acid synthase (Homo sapiens, UniProt P49327); assay: inhibition of human FAS-TE enzyme activity – biochemical, kinetic fluorescence intensity, dose response (AID 624326); format: functional;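 note: rate of fluorescence rise from hydrolysis of a fluorogenic O-methyl fluorescein ester substrate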
T3 sequence (P49327 whole entry): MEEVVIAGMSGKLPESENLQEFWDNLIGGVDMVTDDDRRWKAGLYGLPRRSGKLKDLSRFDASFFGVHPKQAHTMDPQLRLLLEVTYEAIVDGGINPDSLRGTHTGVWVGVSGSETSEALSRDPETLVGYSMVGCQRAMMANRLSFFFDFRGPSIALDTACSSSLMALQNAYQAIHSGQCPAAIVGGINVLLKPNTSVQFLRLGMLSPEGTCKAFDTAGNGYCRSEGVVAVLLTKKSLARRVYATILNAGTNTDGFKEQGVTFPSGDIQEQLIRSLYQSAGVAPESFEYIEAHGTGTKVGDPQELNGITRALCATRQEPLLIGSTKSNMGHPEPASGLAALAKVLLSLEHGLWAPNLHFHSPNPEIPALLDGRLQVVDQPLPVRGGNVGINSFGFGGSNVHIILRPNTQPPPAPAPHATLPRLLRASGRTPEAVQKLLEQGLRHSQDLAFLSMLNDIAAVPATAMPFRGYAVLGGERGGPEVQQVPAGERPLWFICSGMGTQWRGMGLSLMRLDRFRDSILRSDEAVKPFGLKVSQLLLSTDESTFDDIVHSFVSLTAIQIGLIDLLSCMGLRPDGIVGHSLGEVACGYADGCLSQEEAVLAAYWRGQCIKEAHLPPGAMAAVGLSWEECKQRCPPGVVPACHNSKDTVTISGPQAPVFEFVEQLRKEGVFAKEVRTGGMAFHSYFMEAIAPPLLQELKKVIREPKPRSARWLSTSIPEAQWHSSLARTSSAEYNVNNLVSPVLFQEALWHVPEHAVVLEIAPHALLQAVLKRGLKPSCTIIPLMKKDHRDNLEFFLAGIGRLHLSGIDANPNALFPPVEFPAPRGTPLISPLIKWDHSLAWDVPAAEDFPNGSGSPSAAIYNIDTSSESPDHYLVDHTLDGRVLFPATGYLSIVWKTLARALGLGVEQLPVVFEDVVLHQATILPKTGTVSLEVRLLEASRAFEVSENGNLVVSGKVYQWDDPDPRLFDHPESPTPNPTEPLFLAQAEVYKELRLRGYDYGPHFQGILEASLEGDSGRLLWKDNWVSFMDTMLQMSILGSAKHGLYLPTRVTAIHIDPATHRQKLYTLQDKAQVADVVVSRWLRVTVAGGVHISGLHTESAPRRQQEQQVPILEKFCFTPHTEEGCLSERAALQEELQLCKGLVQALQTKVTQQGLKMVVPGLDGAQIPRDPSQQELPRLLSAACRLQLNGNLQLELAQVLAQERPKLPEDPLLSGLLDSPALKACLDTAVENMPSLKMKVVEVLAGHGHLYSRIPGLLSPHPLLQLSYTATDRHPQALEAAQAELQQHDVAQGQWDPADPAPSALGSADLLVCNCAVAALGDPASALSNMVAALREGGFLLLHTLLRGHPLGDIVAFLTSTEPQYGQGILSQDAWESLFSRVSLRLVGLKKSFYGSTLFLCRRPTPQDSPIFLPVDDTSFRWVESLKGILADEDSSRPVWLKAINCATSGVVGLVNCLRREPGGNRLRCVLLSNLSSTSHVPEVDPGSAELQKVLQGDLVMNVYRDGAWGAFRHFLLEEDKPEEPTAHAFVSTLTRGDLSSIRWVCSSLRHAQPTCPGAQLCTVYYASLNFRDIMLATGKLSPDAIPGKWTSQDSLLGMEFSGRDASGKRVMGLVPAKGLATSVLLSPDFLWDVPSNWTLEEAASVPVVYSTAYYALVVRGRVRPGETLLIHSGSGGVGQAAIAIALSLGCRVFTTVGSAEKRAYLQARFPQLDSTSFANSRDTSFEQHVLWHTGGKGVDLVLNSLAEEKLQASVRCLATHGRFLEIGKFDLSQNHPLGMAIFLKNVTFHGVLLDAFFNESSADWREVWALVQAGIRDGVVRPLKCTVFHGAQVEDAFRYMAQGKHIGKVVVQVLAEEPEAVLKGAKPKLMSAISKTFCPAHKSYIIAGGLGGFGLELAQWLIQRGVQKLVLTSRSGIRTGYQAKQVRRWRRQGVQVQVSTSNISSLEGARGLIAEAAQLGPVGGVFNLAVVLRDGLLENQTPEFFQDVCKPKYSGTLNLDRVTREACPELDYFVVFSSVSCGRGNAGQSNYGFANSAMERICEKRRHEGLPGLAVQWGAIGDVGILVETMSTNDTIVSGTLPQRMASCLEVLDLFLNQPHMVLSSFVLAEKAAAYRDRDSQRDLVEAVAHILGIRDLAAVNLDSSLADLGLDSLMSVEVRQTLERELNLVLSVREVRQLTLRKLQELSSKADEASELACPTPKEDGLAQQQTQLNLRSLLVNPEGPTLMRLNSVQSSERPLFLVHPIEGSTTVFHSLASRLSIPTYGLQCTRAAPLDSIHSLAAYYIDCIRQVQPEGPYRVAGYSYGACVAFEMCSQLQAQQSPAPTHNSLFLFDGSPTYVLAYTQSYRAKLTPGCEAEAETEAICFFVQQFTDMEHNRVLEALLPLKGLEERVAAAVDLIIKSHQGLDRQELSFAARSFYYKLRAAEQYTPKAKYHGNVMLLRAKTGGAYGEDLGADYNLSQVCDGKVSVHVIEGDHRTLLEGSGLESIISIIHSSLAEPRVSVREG

[8] = Luminescence Cell-Based Dose Response HTS to Identify Inhibitors of 5'UTR Stem-Loop Driven Prion Protein mRNA Translation in H4 Neuroglioblastoma Cells. [Related pubchem assays: 1827 (Project Summary), 1813 (Primary HTS)]; format: functional
[9] = luciferase reporter signal suppression in cells – H4 neuroglioma cells, luminescence, dose response (AID 1990); format: functional, cell-based
[10] = molecular target: T3, Fatty acid synthase; assay: inhibition of human FAS-TE enzyme activity – biochemical, endpoint fluorescence intensity, uHTS hits, dose response (AID 624327); format: functional;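 note: fluorescence from hydrolysis of an O-methyl fluorescein acyl ester substrate by the enzyme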
[11] = Luminescence Cell-Based Dose Confirmation HTS to Identify Activators of 5'UTR Stem-Loop Driven Alpha-Synuclein mRNA Translation in H4 Neuroglioblastoma Cells. [Related pubchem assays: 1829 (Project Summary), 1814 (Primary HTS)]; format: functional
[12] = Luminescence Cell-Based Dose Response HTS to Identify Activators of Luciferase Translation or Activity in H4 […] Cells. [Related pubchem assays: 1829 (Project Summary), 1814 (Primary HTS)]; format: functional
[13] = NIH3T3 cell viability loss – ATP luminescence, mouse fibroblasts, counter-screen, dose response (AID 2010); format: functional, cell-based;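 note: cells exposed to compound for about 90 hours before reading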
[14] = system: H4; assay: Luminescence Cell-Based Dose Response HTS to Identify Activators of 5'UTR Stem-Loop Driven Prion Protein mRNA Translation in H4 Neuroglioblastoma Cells. [Related pubchem assays: 1829 (Project Summary), 1814 (Primary HTS)]; format: functional; conditions: Homo sapiens
[15] = Trypanosoma cruzi growth suppression in host cells – NIH3T3 host cells, beta-gal luminescence, confirmation (AID 2044); format: functional, cell-based;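 note: intracellular parasites grown in NIH/3T3 mouse fibroblasts as host cells; luminescent beta-galactosidase reporter signal from transgenic T. cruzi replicating inside host cells; inhibitors lower the luminescence signal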
[16] = microbe, parasite or virus in culture; format: functional; conditions: Mycobacterium tuberculosis
[17] = HEK-293T cell viability reduction – luminescence, B-cell screen hits, cytotoxicity control for BCR NF-kB inhibitor project, dose response (AID 489021); format: functional, cell-based;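 note: HEK-293T cells carrying an NF-kB luciferase reporter; cells exposed to compound for about 14 hours before viability readout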
[18] = molecular target: T4, Protein skinhead-1 (Caenorhabditis elegans, UniProt P34707); format: functional
T4 sequence (P34707 whole entry): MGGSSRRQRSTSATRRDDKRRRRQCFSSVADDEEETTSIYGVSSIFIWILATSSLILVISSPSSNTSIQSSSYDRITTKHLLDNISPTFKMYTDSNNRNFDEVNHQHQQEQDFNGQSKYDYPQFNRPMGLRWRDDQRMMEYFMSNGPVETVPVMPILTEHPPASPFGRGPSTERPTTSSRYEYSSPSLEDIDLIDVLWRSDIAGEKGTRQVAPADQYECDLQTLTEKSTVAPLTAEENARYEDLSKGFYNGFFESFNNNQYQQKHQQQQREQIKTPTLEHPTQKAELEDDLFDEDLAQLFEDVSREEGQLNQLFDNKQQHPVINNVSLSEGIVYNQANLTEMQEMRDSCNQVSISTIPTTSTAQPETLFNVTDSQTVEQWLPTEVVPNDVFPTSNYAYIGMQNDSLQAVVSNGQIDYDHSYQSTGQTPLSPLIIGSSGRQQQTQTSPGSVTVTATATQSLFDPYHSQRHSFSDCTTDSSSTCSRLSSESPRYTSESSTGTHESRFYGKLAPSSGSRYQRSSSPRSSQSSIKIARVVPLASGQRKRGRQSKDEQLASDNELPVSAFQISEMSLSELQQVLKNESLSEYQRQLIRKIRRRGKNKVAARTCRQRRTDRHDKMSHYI

[19] = molecular target: Voltage-dependent T-type calcium channel subunit alpha-1H (Homo sapiens, UniProt O95180); format: functional;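 note: channel activity triggered by adding a high calcium stimulation buffer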
Chain of Voltage-dependent T-type calcium channel subunit alpha-1H (O95180 whole entry): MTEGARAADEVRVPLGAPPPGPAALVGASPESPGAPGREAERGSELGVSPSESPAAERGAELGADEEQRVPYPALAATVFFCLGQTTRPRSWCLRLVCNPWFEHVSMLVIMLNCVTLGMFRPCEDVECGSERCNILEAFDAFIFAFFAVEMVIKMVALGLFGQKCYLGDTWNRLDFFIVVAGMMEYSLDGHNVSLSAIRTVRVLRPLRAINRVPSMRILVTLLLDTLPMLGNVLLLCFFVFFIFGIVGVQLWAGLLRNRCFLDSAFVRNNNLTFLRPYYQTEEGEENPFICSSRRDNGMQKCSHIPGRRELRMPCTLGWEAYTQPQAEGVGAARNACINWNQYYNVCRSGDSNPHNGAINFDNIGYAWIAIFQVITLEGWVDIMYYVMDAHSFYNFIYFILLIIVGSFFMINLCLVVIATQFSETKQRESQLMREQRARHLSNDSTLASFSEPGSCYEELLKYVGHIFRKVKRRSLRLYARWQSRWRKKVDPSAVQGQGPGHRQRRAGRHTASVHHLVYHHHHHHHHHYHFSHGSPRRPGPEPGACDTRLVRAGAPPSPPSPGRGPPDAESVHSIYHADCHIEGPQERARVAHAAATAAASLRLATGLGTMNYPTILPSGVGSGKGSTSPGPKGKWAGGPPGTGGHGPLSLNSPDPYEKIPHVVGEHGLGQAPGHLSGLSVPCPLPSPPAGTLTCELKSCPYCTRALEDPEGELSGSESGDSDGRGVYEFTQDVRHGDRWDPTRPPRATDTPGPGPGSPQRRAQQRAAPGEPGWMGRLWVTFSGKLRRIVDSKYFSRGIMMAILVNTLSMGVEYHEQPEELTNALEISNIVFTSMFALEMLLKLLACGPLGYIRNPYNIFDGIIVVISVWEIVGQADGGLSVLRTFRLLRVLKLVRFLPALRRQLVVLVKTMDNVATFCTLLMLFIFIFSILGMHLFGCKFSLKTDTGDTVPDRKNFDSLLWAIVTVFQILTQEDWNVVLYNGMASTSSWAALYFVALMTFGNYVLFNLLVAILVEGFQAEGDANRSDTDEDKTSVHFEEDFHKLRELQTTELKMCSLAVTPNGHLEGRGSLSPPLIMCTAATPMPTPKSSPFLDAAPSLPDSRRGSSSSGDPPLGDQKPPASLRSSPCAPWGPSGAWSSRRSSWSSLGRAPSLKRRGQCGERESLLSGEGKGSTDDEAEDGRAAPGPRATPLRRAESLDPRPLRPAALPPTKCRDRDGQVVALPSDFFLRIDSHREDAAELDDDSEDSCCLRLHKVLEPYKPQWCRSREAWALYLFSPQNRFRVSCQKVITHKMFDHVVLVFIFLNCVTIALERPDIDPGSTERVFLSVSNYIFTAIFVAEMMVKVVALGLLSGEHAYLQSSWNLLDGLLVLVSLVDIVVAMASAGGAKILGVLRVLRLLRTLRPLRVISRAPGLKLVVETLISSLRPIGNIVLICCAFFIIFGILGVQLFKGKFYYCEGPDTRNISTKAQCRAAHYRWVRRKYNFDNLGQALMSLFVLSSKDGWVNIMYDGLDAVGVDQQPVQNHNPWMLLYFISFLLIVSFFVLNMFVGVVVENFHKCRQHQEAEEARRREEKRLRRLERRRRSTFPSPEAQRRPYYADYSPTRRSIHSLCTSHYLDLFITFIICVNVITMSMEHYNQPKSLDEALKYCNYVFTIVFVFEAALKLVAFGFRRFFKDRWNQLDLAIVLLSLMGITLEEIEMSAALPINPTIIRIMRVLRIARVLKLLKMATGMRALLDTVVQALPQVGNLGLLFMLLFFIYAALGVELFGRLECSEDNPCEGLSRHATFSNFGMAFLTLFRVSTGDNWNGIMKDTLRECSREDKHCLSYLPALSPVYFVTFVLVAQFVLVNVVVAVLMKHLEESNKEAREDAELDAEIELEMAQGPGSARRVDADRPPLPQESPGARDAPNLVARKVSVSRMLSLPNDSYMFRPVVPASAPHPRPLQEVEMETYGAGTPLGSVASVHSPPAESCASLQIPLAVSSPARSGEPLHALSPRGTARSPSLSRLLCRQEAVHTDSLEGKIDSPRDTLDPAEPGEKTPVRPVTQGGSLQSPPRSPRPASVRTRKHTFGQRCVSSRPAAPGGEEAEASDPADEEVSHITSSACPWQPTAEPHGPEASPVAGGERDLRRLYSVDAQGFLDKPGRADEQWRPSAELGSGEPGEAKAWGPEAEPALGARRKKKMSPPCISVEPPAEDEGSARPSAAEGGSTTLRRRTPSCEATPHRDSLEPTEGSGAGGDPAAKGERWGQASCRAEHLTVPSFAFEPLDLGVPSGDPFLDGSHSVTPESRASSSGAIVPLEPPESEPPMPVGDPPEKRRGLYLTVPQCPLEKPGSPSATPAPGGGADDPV

Cc1nc2sc(C(c3ccc(Cl)cc3)N3CCN(c4ccccc4F)CC3)c(O)n2n1 (configuration not stated)
AC50 [1]: 1.69 µM (active)

CCCCC(=O)Nc1sc(C(=O)N(CC)CC)c(C)c1C(=O)OC
EC50 [2]: > 195 µM (not active)
IC50 [3]: 49.6 µM (active)

COc1ccc(NC(=O)Nc2ccc3c(c2)CC(=O)N([C@@H](C)CO)C[C@H](C)[C@@H](CN(C)Cc2ccc(C(F)(F)F)cc2)O3)cc1
AC50 [4]: 5.55 µM (active)

CSCCC(NC(=O)c1cccc(C)c1)C(=O)OCC(=O)NC(=O)c1cccn1C (configuration not stated)
IC50 [5]: 39 µM (active)

COc1ccc(-c2nc3cnccn3c2Nc2ccc3c(c2)OCO3)cc1
AC50 [1]: 0.702 µM (active)

C[C@H](CO)N1C[C@H](C)[C@H](CN(C)Cc2ccc(Cl)c(Cl)c2)Oc2c(NC(=O)c3nc4ccccc4s3)cccc2C1=O
AC50 [4]: 6.38 µM (active)

CC(=O)CSc1nnc(CSc2ncccn2)n1C1CCCCC1
AC50 [1]: 13.9 µM (active)

C[C@@H]1CN([C@@H](C)CO)C(=O)c2cccc(NS(=O)(=O)c3ccc(Cl)cc3)c2O[C@@H]1CN(C)Cc1ccc(Oc2ccccc2)cc1
AC50 [4]: 4.87 µM (active)

COc1ccc(OCC(=O)N2CCN(Cc3ccc(SC)cc3)CC2)cc1
IC50 [5]: > 50 µM (not active)

CCOc1ccc(-n2c(SCc3ccc([N+](=O)[O-])cc3)nnc2-c2ccccc2)cc1
EC50 [6]: 24.9 µM (active)
IC50 [7]: 5.2 µM (active)
EC50 [8]: 69.4 µM (active)
EC50 [9]: 15.5 µM (active)
IC50 [10]: 6.83 µM (active)

CCN(CC)S(=O)(=O)c1ccc2c(c1)c(=O)c(C(=O)NCc1cccs1)cn2C
IC50 [5]: 0.0331 µM (active)

O=C(CSc1nnc(-c2ccncc2)n1-c1ccc(Cl)cc1)NCc1cccs1
AC50 [1]: 9.86 µM (active)

COc1ccc(NCc2nc3ccccc3n2CCOc2ccccc2)cc1
EC50 [11]: 7.26 µM (active)
EC50 [12]: 53.4 µM (active)
EC50 [13]: > 60 µM (not active)
EC50 [14]: 79.8 µM (active)
EC50 [15]: 2.36 µM (active)
CC50 [16]: > 40 µM (active)

COc1ccc(-c2ccc(F)cc2)cc1[C@H]1[C@H]2C=CC[C@@H](C)[C@@H]2C(=O)N1Cc1ccccc1
IC50 [17]: > 80 µM (inactive)

C[C@@H]1CN([C@H](C)CO)C(=O)c2cc(NC(=O)Nc3ccc4c(c3)OCO4)ccc2O[C@@H]1CN(C)Cc1ccc(-c2ccccc2)cc1
AC50 [4]: 2.72 µM (active)

O=C(CSc1ccc(Cl)cc1)N1CCN(c2ncc(C(F)(F)F)cc2Cl)CC1
IC50 [18]: > 100 µM (inactive)
EC50 [19]: 5.86 µM (active)
